From patent US10301299B2, “Glycosidase inhibitors” (Merck Patent GmbH, priority 2013, dated 2019)

Tested on: B35 rat neuroblastoma cells
Test: Cellular O-GlcNAcylation assay (tau O-GlcNAc S400, ICC)
Assay type: cell-based
Settings: Neuroblastoma cell, 16 h, tau O-GlcNAcylated at serine 400
Protocol: The following day cells were treated with appropriate concentration of a solution of inhibitor for 16 h at 37° C. in 5% CO2. Cells were fixed in 100 μl 4% paraformaldehyde for 15 min at room temperature, followed by three washes in PBS buffer. The cells were then permeabilized with 0.1% Triton X-100 for 60 min at room temperature. After three washes in PBS the cells were blocked with 10% goat serum containing 1% BSA in PBS buffer for two hours at room temperature. The cells were then incubated with a monoclonal rabbit antibody specific for tau O-GlcNAcylated at serine 400 (Epitomics) at a 1:1000 dilution overnight at 4° C. […] To calculate an EC50 the total peak intensity was plotted against the concentration of inhibitor to produce a sigmoidal dose response curve.

SMILES | EC50 [nM]
CC(=O)Nc1ncc(CN2CCC(c3ccccc3)CC2)s1 [Compound 1, N-(5-((4-phenylpiperidin-1-yl)methyl)thiazol-2-yl)acetamide] | 200 to 1000
COC(=O)Nc1ncc(CN2CCC(c3ccccc3)CC2)s1 [Compound 2, [5-(4-Phenyl-piperidin-1-ylmethyl)-thiazol-2-yl]-carbamic acid methyl ester] | > 10000
CC(=O)Nc1ncc(CN2CCC(c3ccc(C)cc3)CC2)s1 [Compound 14, N-(5-((4-(p-tolyl)piperidin-1-yl)methyl)thiazol-2-yl)acetamide] | 200 to 1000
COc1ccc(C2CCN(Cc3cnc(NC(C)=O)s3)CC2)cc1 [Compound 16, N-(5-((4-(4-methoxyphenyl)piperidin-1-yl)methyl)thiazol-2-yl)acetamide] | 1000 to 10000
CC(=O)Nc1ncc(CN2CCN(c3ccccc3)CC2)s1 [Compound 19, N-[5-(4-phenyl-piperazin-1-ylmethyl)-thiazol-2-yl]-acetamide] | 1000 to 10000
CC(=O)Nc1ncc(CNCCCc2ccccc2)s1 [Compound 20, N-{5-[(3-phenyl-propylamino)-methyl]-thiazol-2-yl}-acetamide] | 1000 to 10000

Target: T1, His-Tagged hOGA (Homo sapiens, UniProt O60502)
T1 sequence (O60502 1-916): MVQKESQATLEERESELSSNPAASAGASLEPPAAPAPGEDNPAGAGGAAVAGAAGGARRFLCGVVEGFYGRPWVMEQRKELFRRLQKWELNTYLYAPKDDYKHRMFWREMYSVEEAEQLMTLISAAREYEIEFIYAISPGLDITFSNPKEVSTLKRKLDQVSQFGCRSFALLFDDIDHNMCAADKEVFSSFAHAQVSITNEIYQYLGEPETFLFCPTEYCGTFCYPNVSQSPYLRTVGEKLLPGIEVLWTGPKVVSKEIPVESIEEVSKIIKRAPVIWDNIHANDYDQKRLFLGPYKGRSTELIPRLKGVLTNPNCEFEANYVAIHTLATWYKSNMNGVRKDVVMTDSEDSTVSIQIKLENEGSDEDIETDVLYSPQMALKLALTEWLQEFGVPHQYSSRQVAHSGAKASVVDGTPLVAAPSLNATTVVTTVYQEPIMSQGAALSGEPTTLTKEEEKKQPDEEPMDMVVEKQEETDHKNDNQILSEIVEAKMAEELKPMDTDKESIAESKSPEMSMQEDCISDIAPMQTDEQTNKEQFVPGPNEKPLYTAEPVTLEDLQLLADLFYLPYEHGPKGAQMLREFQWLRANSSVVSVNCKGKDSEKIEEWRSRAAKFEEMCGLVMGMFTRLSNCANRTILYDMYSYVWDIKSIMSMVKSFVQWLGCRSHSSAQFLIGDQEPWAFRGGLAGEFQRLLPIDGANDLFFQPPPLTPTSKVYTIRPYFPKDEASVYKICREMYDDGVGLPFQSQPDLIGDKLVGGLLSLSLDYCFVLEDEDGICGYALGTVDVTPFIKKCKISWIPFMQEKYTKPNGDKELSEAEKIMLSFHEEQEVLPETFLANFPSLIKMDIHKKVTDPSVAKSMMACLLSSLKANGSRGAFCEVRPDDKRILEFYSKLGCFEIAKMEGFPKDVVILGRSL
Test: Human O-GlcNAcase enzyme inhibition assay
Assay type: biochemical
Settings: not given
Protocol: The following reaction components were added to a final volume of 10 μL in Mcllvaine's Buffer (pH 6.5): 20 nM His-Tagged hOGA and 10 μM Fluorescein mono-beta-D-(2-deoxy-2-N-acetyl) glucopyranoside (FL-GlcNAc; Marker Gene Technologies Inc, Part # M1485). […] The amount of fluorescence measured was plotted against the concentration of inhibitor to produce a sigmoidal dose response curve, from which an IC50 was calculated.

SMILES | IC50 [nM]
CC(=O)Nc1ncc(CN2CCC(C#N)(c3ccccc3)CC2)s1 [Compound 23, N-[5-(4-cyano-4-phenyl-piperidin-1-ylmethyl)-thiazol-2-yl]-acetamide] | > 10000
CC(=O)Nc1ncc(CN2CCC(Cc3ccccc3)CC2C)s1 (centres unmarked) [Compound 51, N-(5-((4-BENZYL-2-METHYLPIPERIDIN-1-YL)METHYL)THIAZOL-2-YL)ACETAMIDE] | < 200
CC(=O)Nc1ncc(CN2CCC(Cc3ccc(C)cc3)CC2)s1 [Compound 54, N-(5-((4-(4-METHYLBENZYL)PIPERIDIN-1-YL)METHYL)THIAZOL-2-YL)ACETAMIDE] | < 200
COc1ccc(CC2CCN(Cc3cnc(NC(C)=O)s3)CC2)cc1 [Compound 55, N-(5-((4-(4-METHOXYBENZYL)PIPERIDIN-1-YL)METHYL)THIAZOL-2-YL)ACETAMIDE] | < 200

Same assay, conditions: 20 nM His-Tagged hOGA, 10 μM FL-GlcNAc, pH 6.5, 60 min; read-out: hOGA enzyme inhibition (IC50)

SMILES | IC50 [nM]
CC(=O)Nc1ncc(CN2CCC(Cc3ccccc3)C(F)C2)s1 (single isomer, unassigned) [Compound 52, N-(5-((-4-BENZYL-3-FLUOROPIPERIDIN-1-YL)METHYL)THIAZOL-2-YL)ACETAMIDE] | < 200
CC(=O)Nc1ncc(CN2CCC(c3ccccc3)CC2)s1 [Compound 1, N-(5-((4-phenylpiperidin-1-yl)methyl)thiazol-2-yl)acetamide] | < 200
COC(=O)Nc1ncc(CN2CCC(c3ccccc3)CC2)s1 [Compound 2, [5-(4-Phenyl-piperidin-1-ylmethyl)-thiazol-2-yl]-carbamic acid methyl ester] | 1000 to 10000
CCC(=O)Nc1ncc(CN2CCC(c3ccccc3)CC2)s1 [Compound 3, N-(5-((4-phenylpiperidin-1-yl)methyl)thiazol-2-yl)propionamide] | 200 to 1000
C=CC(=O)Nc1ncc(CN2CCC(c3ccccc3)CC2)s1 [Compound 4, N-[5-(4-phenyl-piperidin-1-ylmethyl)-thiazol-2-yl]-acrylamide] | 1000 to 10000
CCNc1ncc(CN2CCC(c3ccccc3)CC2)s1 [Compound 5, N-ethyl-5-((4-phenylpiperidin-1-yl)methyl)thiazol-2-amine] | > 10000
CCCNc1ncc(CN2CCC(c3ccccc3)CC2)s1 [Compound 6, 5-((4-phenylpiperidin-1-yl)methyl)-N-propylthiazol-2-amine] | > 10000
Cc1ncc(CN2CCC(c3ccccc3)CC2)s1 [Compound 7, 2-methyl-5-((4-phenylpiperidin-1-yl)methyl)thiazole] | > 10000
CCc1ncc(CN2CCC(c3ccccc3)CC2)s1 [Compound 8, 2-ethyl-5-((4-phenylpiperidin-1-yl)methyl)thiazole] | > 10000
CC(=O)N(C)c1ncc(CN2CCC(c3ccccc3)CC2)s1 [Compound 9, N-methyl-N-(5-((4-phenylpiperidin-1-yl)methyl)thiazol-2-yl)acetamide] | 1000 to 10000
CNC(=O)Nc1ncc(CN2CCC(c3ccccc3)CC2)s1 [Compound 10, 1-methyl-3-(5-((4-phenylpiperidin-1-yl)methyl)thiazol-2-yl)urea] | 1000 to 10000
CS(=O)(=O)Nc1ncc(CN2CCC(c3ccccc3)CC2)s1 [Compound 11, N-[5-(4-phenyl-piperidin-1-ylmethyl)-thiazol-2-yl]-methanesulfonamide] | > 10000
c1ccc(C2CCN(Cc3cnc(NC4CC4)s3)CC2)cc1 [Compound 12, N-cyclopropyl-5-((4-phenylpiperidin-1-yl)methyl)thiazol-2-amine] | > 10000
CC(=O)Nc1ncc(CN2CCC(c3ccccc3)CC2)o1 [Compound 13] | 1000 to 10000
CC(=O)Nc1ncc(CN2CCC(c3ccc(C)cc3)CC2)s1 [Compound 14, N-(5-((4-(p-tolyl)piperidin-1-yl)methyl)thiazol-2-yl)acetamide] | < 200
CC(=O)Nc1ncc(CN2CCC(C)CC2)s1 [Compound 15, N-[5-(4-methyl-piperidin-1-ylmethyl)-thiazol-2-yl]-acetamide] | 1000 to 10000
COc1ccc(C2CCN(Cc3cnc(NC(C)=O)s3)CC2)cc1 [Compound 16, N-(5-((4-(4-methoxyphenyl)piperidin-1-yl)methyl)thiazol-2-yl)acetamide] | < 200
CC(=O)Cc1ncc(CN2CCC(c3ccccc3)CC2)s1 [Compound 17] | > 10000
CCC(=O)Cc1ncc(CN2CCC(c3ccccc3)CC2)s1 [Compound 18] | > 10000

SMILES | IC50 [nM]
CC(=O)Nc1ncc(CN2CCN(c3ccccc3)CC2)s1 [Compound 19, N-[5-(4-phenyl-piperazin-1-ylmethyl)-thiazol-2-yl]-acetamide] | 200 to 1000
CC(=O)Nc1ncc(CNCCCc2ccccc2)s1 [Compound 20, N-{5-[(3-phenyl-propylamino)-methyl]-thiazol-2-yl}-acetamide] | 200 to 1000
CC(=O)Nc1ncc(CN2CCC(O)(c3ccccc3)CC2)s1 [Compound 24, N-[5-(4-hydroxy-4-phenyl-piperidin-1-ylmethyl)-thiazol-2-yl]-acetamide] | 1000 to 10000
CC(=O)Nc1ncc(CN2CCC(N(C)C)CC2)s1 [Compound 34, N-(5-((4-(dimethylamino)piperidin-1-yl)methyl)thiazol-2-yl)acetamide] | > 10000
CC(=O)Nc1ncc(CN2CCC(c3ccccc3C(=O)O)CC2)s1 [Compound 44, 2-(1-((2-acetamidothiazol-5-yl)methyl)piperidin-4-yl)benzoic acid] | > 10000
CC(=O)Nc1ncc(CN2CCC(Cc3ccc(Cl)cc3)CC2)s1 [Compound 46, N-(5-((4-(4-chlorobenzyl)piperidin-1-yl)methyl)thiazol-2-yl)acetamide] | < 200
CC(=O)Nc1ncc(CN2CCC(Cc3ccc4c(c3)OCO4)CC2)s1 [Compound 47] | < 200
CC(=O)Nc1ncc(CN2CCC(Cc3ccc(F)cc3)CC2)s1 [Compound 48, N-(5-((4-(4-FLUOROBENZYL)PIPERIDIN-1-YL)METHYL)THIAZOL-2-YL)ACETAMIDE] | < 200
CC(=O)Nc1ncc(CN2CCC(Cc3ccc(C(F)(F)F)cc3)CC2)s1 [Compound 49, N-(5-((4-(4-(TRIFLUOROMETHYL)BENZYL)PIPERIDIN-1-YL)METHYL)THIAZOL-2-YL)ACETAMIDE] | < 200
CC(=O)Nc1ncc(CN2CCC(Cc3cccc(F)c3)CC2)s1 [Compound 50, N-(5-((4-(3-FLUOROBENZYL)PIPERIDIN-1-YL)METHYL)THIAZOL-2-YL)ACETAMIDE] | < 200
CC(=O)Nc1ncc(CN2CCC(Cc3ccccc3)C(C)C2)s1 (centres unmarked) [Compound 53, N-(5-((4-BENZYL-3-METHYLPIPERIDIN-1-YL)METHYL)THIAZOL-2-YL)ACETAMIDE] | < 200
CC(=O)Nc1ncc(CN2CCC(Cc3ccc4ccccc4c3)CC2)s1 [Compound 56] | < 200
CC(=O)Nc1ncc(CN2CCN(C(C)c3ccc4c(c3)OCO4)CC2)s1 (centres unmarked) [Compound 58, N-(5-((4-(1-(BENZO[D][1,3]DIOXOL-5-YL)ETHYL)PIPERAZIN-1-YL)METHYL)THIAZOL-2-YL)ACETAMIDE] | 1000 to 10000
CC(c1ccc2c(c1)OCO2)N1CCN(Cc2cnc(N3CCNC(=O)C3)s2)CC1 (centres unmarked) [Compound 59, 4-(5-((4-(1-(BENZO[D][1,3]DIOXOL-5-YL)ETHYL)PIPERAZIN-1-YL)METHYL)THIAZOL-2-YL)PIPERAZIN-2-ONE] | 1000 to 10000
CC(=O)Nc1ncc(CN2CCC(Oc3ccccc3)CC2)s1 [Compound 61, N-(5-((4-PHENOXYPIPERIDIN-1-YL)METHYL)THIAZOL-2-YL)ACETAMIDE] | 200 to 1000
CC(=O)Nc1ncc(CN2CCC(CCc3ccccc3)CC2)s1 [Compound 62] | < 200
CC(=O)Nc1ncc(CN2CCC(Cc3ccc4nccnc4c3)CC2)s1 [Compound 63] | < 200
CC(=O)Nc1ncc(CN2CCC(Cc3cc(F)cc(F)c3)CC2)s1 [Compound 64, N-(5-((4-(3,5-DIFLUOROBENZYL)PIPERIDIN-1-YL)METHYL)THIAZOL-2-YL)ACETAMIDE] | < 200
